{"source": "patent US9873883B2", "about": "“Glyphosate resistant plants and associated methods” (Dow AgroSciences LLC, priority 2012, dated 2018)", "tested_on": "T0 dgt-14 corn plants", "experiment": "Postemergence herbicide tolerance in dgt-14 transformed T0 corn", "type": "in vivo, Zea mays", "conditions": "Durango DMA", "protocol": "T0 events are allowed to acclimate in the greenhouse and are grown until two to four new, normal looking leaves emerge from the whorl (i.e., plants that transition from tissue culture to greenhouse growing conditions). Plants are grown at 27° C. under 16 hour light:8 hour dark conditions in the greenhouse. The plants are then treated with commercial formulations of Durango DMA™ (containing the herbicide glyphosate) with the addition of 2% w/v ammonium-sulfate. Herbicide applications are made with a track sprayer at a spray volume of 187 L/ha, 50-cm spray height. T0 plants are sprayed with a range of glyphosate from 280-4480 g ae/ha glyphosate, which is capable of significant injury to untransformed corn lines. A lethal dose is defined as the rate that causes >95% injury to the B104 inbred.", "data": [{"smiles": "O=C(O)CNCP(=O)(O)O", "note": "[glyphosate, N-(phosphonomethyl)glycine]", "values": [{"measurement": "tolerance to glyphosate achieved at rates up to", "result": "up to 4480 g ae/ha"}]}]}
